Experiments:
[1] = test system: carrageenin-induced inflammation; experiment: Carrageenin-induced inflammation in intact and adrenalectomized rats; assay type: in vivo
Description: An acute inflammatory oedema was induced in intact and adrenalectomized male rats weighing 180-200 g by sub-plantar injection of 0.1 ml of 1% carrageenin solution into the left paw (Winter et al., 1962). The same volume of saline solution was injected into the contralateral paw. […] There were 10 rats in each group.
The degree of carrageenin-induced inflammation of the ankle joints was assessed at 3 hours after the induction of the inflammation, on the basis of the change in weight of the experimental and control paws (reaction index).

[2] = test system: bradykinin-induced inflammation; experiment: Bradykinin-induced acute inflammation in rats; assay type: in vivo
Description: Acute inflammation was induced by sub-plantar injection of 0.1 ml of 0.01% of bradykinin in saline solution into the left paws of male rats weighing 180-200 g. The acuteness of the inflammation was assessed 30 minutes after injection of bradykinin by the change in the paw volume. The anti-inflammatory effect, assessed by the reduction of swelling, was expressed as a percentage of the initial paw […] compared to controls. The test substances were administered orally via an intra-gastric tube for three days and at one hour before administration of bradykinin. […] These were administered orally to rats for 3 days and at one hour before the injection of the agent. There were 12 rats in each group.

[3] = test system: cryogenic injury of the oral mucosa; experiment: Healing of mouth ulcers caused by cryogenic injury in rats; assay type: in vivo; settings: 50 mg/kg; morphological analysis
Description: A model of mouth ulcers using ulcers caused by cryogenic injury of the inner surface of the cheek was used for this purpose. Tests were performed on 110 male rats weighing 180-200 g, with 10 animals in each group. Ulcers were created in experimental animals by pressing a metal rod of 2.5 mm in diameter cooled in liquid nitrogen to the mucosa for 10 seconds under ether anaesthesia. Animals were kept in separate cages, with normal food and water ad libitum. Treatment was administered by spraying of the mucous membrane of the mouth, 24 hours after wounding and then daily until healing was complete. Compound 2 was administered to the animals at a dose of 50 mg/kg (2 ml of aqueous solution). The following groups of animals were used:
The progress of wound healing was examined morphologically on days 1, 3, 7 and 14. On the day 3 the lesions were progressively worse, resulting in the growth of necrotic changes with the formation of a wide necrotic zone at the bottom of the wound, and growth and expansion of acute inflammation involving the muscle, skin and mucosa beyond the wound area. On day 7, the wounds in half of the animals were partially cleared of the necrotic mass, accompanied by the development of granulation tissue at the bottom of the wound and in the adjacent mucosa. […]

[4] = test system: cryogenic injuries of the sigmoid colon; experiment: Cryogenic damage of the colon, model of ulcerative colitis; assay type: in vivo, rats; settings: day 7
Description: A model of cryogenic damage of the colon was used in this experiment to simulate ulcerative colitis. Cryogenic injuries of the sigmoid colon of rats were induced by pressing a metal rod of […] in diameter cooled in liquid nitrogen to the serous membrane of the colon for 10 seconds under ether anaesthesia.
Tests were performed on 67 male rats weighing 180-200 g, with 8 animals in each group. Animals were kept in separate cages, with normal food and water ad libitum. The test compounds were administered orally on the second day after the operation, and then daily until healing was complete. Compound 2 or Compound 6 was administered to test animals at a dose of 20-50 mg/kg. The following agents were used for comparison:
The nature of the healing of the ulcer injury was examined morphologically on days 1, 3 and 7. […] The inflammatory process extends beyond the injured area into the adjacent areas, and beyond the peritoneum into fatty connective tissue.

[5] = test system: chronic active viral hepatitis; experiment: Clinical study in chronic active viral hepatitis; assay type: in vivo, human; settings: 600 mg a day orally
Description: 45 patients aged between 18 and 32 years old with chronic active viral hepatitis were divided into 4 groups and kept under observation. All patients had received conventional therapy, usually potassium orotate, riboxin and interferon prior to commencement of the trial.
The first group (10 patients) received conventional therapy for 20 days. Assessment of clinical and biochemical indicators and serology data was carried out repeatedly for 20 days after the beginning of treatment.
The second group (10 patients) received both conventional treatment and prednisolone at a dose of […] for 20 days. In this group the clinical-biochemical and serological analysis took place before the treatment, and 10 days and 20 days after the beginning of treatment.
The third group (10 patients) received both conventional treatment and Compound 2 administered orally at a dose of 600 mg a day for 20 days. The control clinical-biochemical and serological analysis was carried out 20 days after the beginning of treatment.
The fourth group (15 patients) received prednisolone either orally or intravenously at a dose of 15 mg a day for 10 days; then prednisolone was stopped and replaced by Compound 2 at a dose of 600 mg a day for 10 days. […]

[6] = Adrenalectomized animals, 50 mg/kg 4 days + carrageenin
[7] = Adrenalectomized animals, 100 mg/kg 4 days + carrageenin
[8] = Intact animals, 100 mg/kg 4 days + carrageenin

Structure (SMILES): CC[n+]1cn(C)c(C(=O)NC)c1C(=O)NC.O=S(=O)([O-])c1ccccc1 [Compound 2, 1-methyl-3-ethyl-4,5-bis(N-methylcarbamoyl)-imidazolium benzenesulfonate]
- Inhibition of oedema(%) [1, 6]: 27.88%
- Reaction index (%) [1, 6]: 31.04 ± 2.49 %
- Inhibition of oedema(%) [1, 7]: 44.43%
- Reaction index (%) [1, 7]: 25.63 ± 2.86 %
- Inhibition of oedema(%) ([1]; Intact animals, 50 mg/kg orally 4 days + carrageenin): 30.41%
- Reaction index (%) ([1]; Intact animals, 50 mg/kg orally 4 days + carrageenin, 3 hours): 29.96 ± 2.30 %
- Inhibition of oedema(%) [1, 8]: 47.43%
- Reaction index (%) [1, 8]: 22.63 ± 2.86 %
- Increase in paw volume ([2]; 20 mg/kg orally): 0.41 mL
- Paw volume 30 minutes after administration of bradykinin ([2]; 20 mg/kg orally): 1.80 ± 0.060 mL
- Paw volume initial ([2]; 20 mg/kg orally): 1.39 ± 0.040 mL
- Swelling inhibition (%) ([2]; 20 mg/kg orally): 40.58%
- Increase in paw volume ([2]; 50 mg/kg orally): 0.34 mL
- Paw volume 30 minutes after administration of bradykinin ([2]; 50 mg/kg orally): 1.69 ± 0.060 mL
- Paw volume initial ([2]; 50 mg/kg orally): 1.35 ± 0.038 mL
- Swelling inhibition (%) ([2]; 50 mg/kg orally): 50.72%
- healing of cryogenic injury of the oral mucosa compared to untreated controls [3]: more pronounced, earlier and more complete healing
- cases with complete synchronous regeneration ([4]; 20 mg/kg orally): 100%
- animals with reduction of the wound area ([4]; 50 mg/kg): 67%
- clinical picture and biochemical indicators [5]: improves the clinical picture and normalizes biochemical indicators
